How the values were obtained:
[1] = test system: Neuroblastoma SHSY5Y (NB) cells; test: Protection from oxidative stress in vitro, neutral red survival assay; format: cell-based; details: compound at 0.1 mM, 6-OHDA 0.1-0.25 mM, MPP+ 0.5-2 mM, 24 hours
Method: Protection from oxidative stress in vitro: Neuroblastoma SHSY5Y (NB) cells were maintained in Dulbeco's Modified Eagle's Medium (DMEM), supplemented with 8% FCS and 8% horse serum, penicillin (25 μg/ml), streptomycin (25 μg/ml), 2 mM L-glutamine and 400 μg/ml G418 (Gibco/BRL). For protection experiments cells were subcultured (in 2% serum) to poly-L-lysine-coated 96-well microtiter plates (Nunc), 100 μl of 5×10^5 cells/ml, CEA was applied to the cells in each well and 4 hours later DA, L-dopa (levodopa), 6-OHDA and MPP+ were added for 24 hours.
Survival was assayed by adding neutral red (0.34%, Sigma) to cells in DCCM-1 medium (0.1 ml/well, Bet-Haemek) and incubation for 2 hour at 37° C. The cells were then washed with cold PBS containing 10 mM MgCl2 and the dye was dissolved in 50% ethanol in 50% Somerson buffer (70 mM sodium citrate, 30 mM citric acid, 0.1 N HCl). ELISA reader (590 nm) was used to measure the remaining color intensity.

GSH levels = test: Brain GSH levels after IP injection (HPLC); format: in vivo, C57BL/6J mice
[2] = Crossing the blood-brain-barrier: compound level in brain extracts by HPLC after IP injection; format: in vivo, C57BL/6J mice; details: mice, IP 0.25-4 mg, 15 min after injection
Method: Detection of compound j (referred to in this Example also as CEA) was established using high performance liquid chromatography (HPLC). To this end, CEA was treated with a fluorescent thiolyte reagent (monobromobimane reagent) and analyzed on an HPLC column.
Crossing the blood-brain-barrier: In vivo experiments were carried out on C57BL/6J mice (15 grams) injected IP with compound J. After incubation (15 min, 60 min or 4 hours) the mice were anesthetized with ether and blood samples were drawn. Then mice underwent perfusion with 50 ml of saline, injected into the right ventricle. The levels of compound I in the brain and in the plasma were detected by selective fluorescent labeling using high performance liquid chromatography (HPLC).
Increasing amounts of compound J were injected IP and 15 min later, mice were perfused with saline and compound J levels in the brain extracts were determined by HPLC chromatography (FIG. 5b), as compared to a control, pure, uninjected compound J (FIG. 5a).

## CC(=O)NC(CS)C(N)=O (stereo not shown) [compound J]
[1]
  Protection of NB cells against toxicity (>50%) of DA, L-dopa, 6-OHDA and MPP+: protect the cells
[1]; listed as Compound J
  Protection of NB cells against toxicity (>50%) of DA, L-dopa, 6-OHDA and MPP+: protect NB cells
GSH levels
  Endogenous GSH levels in mice brain, effect in words: increases endogenous GSH levels
[2]
  Compound level in the brain: concentration-dependent increase
